Results reported in ChEMBL document CHEMBL1137266, “4-Aminoquinoline melanin-concentrating hormone 1-receptor (MCH1R) antagonists” (Bioorg Med Chem Lett, 2006).

Assays:
[1] = biological target: T1, Melanin-concentrating hormone receptor 1 (Homo sapiens, UniProt Q99705); assay: Displacement of 125I-[Phe13,Tyr19]-MCH from human MCH-R1
[2] = biological target: T1, Melanin-concentrating hormone receptor 1; assay: Stimulation of IP3-coupled mobilization of calcium in HEK293 cells expressing MCH-R1; type: functional, cell-based
[3] = biological target: Melanin-concentrating hormone receptor 2 (Homo sapiens, UniProt Q969V1); assay: Inhibition of 125I-[Phe13,Tyr19]-MCH binding to human MCH-R2 at 2uM
Melanin-concentrating hormone receptor 2, sequence (Q969V1 whole entry): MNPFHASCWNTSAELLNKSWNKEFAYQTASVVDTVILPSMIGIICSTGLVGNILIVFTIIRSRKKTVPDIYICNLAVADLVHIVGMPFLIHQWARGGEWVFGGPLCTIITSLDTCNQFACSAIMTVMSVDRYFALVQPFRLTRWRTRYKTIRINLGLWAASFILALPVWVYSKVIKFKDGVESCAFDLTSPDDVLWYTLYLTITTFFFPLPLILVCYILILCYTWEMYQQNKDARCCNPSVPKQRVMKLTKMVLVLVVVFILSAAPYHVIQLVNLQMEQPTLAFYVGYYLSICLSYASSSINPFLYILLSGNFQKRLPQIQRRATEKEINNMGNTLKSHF

T1 sequence (Q99705 whole entry): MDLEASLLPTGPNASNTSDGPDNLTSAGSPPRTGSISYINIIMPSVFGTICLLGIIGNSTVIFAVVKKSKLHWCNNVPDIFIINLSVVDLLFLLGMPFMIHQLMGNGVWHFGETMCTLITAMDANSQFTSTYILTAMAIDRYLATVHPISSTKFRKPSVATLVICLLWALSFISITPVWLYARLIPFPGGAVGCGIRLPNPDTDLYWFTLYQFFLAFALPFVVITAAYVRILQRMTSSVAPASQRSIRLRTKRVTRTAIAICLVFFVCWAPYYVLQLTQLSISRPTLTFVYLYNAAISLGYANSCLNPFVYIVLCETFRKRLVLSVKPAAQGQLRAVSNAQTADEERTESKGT

| SMILES | IC50 [1] | EC50 [2] | inhibition [3] |
| --- | --- | --- | --- |
| CC(C)(C)Cc1cc(N)c2cc(NC(=O)/C=C/c3ccc(C(F)(F)F)cc3)ccc2n1 | 5.8 nM | 110 nM | < 50% |
| CCCc1cc(N)c2cc(NC(=O)CCc3ccc(C(F)(F)F)cc3)ccc2n1 | 13 nM | 120 nM | < 50% |
| CCCCc1ccc(/C=C/C(=O)Nc2ccc3nc(CCC)cc(N)c3c2)cc1 | 45 nM | 740 nM | < 50% |
| CCCc1cc(N)c2cc(NC(=O)/C=C/c3ccc(Cl)cc3Cl)ccc2n1 | 6.6 nM | 904 nM | < 50% |
| CCCc1cc(N(CC)CC)c2cc(NC(=O)/C=C/c3ccc(C(F)(F)F)cc3)ccc2n1 | 1100 nM |  | < 50% |
| CCCc1cc(N)c2cc(NCCCc3ccc(C(F)(F)F)cc3)ccc2n1 | 180 nM | 1000 nM | < 50% |
| CCCc1cc(OC)c2cc(NC(=O)/C=C/c3ccc(C(F)(F)F)cc3)ccc2n1 | 26 nM | 360 nM | < 50% |
| CCCc1cc(N)c2cc(C(=O)NCCc3ccc(C(F)(F)F)cc3)ccc2n1 | 2700 nM |  | < 50% |
| Cc1cc(N)c2cc(NC(=O)/C=C/c3ccc(C(F)(F)F)cc3)ccc2n1 | 8 nM | 140 nM | < 50% |
| Nc1cc(C2CCC2)nc2ccc(NC(=O)/C=C/c3ccc(C(F)(F)F)cc3)cc12 | 2 nM | 250 nM | < 50% |
| CCCc1cc(N2CCC2)c2cc(NC(=O)/C=C/c3ccc(C(F)(F)F)cc3)ccc2n1 | 2.8 nM | 2500 nM | < 50% |
| CCCc1cc(N)c2cc(NC(=O)c3ccc(-c4ccc(C(F)(F)F)cc4)cc3)ccc2n1 | 4.5 nM | 310 nM | < 50% |
| CCCc1cc(N)c2cc(NC(=O)/C=C/c3ccc(C(F)(F)F)cc3)ccc2n1 (stereo in doubt; form 1) [listing 1 of 2 here] | 1.3 nM | 61 nM |  |
| CCc1cc(N)c2cc(NC(=O)/C=C/c3ccc(C(F)(F)F)cc3)ccc2n1 | 1.2 nM | 110 nM | < 50% |
| CCCc1cc(N)c2cc(NC(=O)Cc3ccc(C(F)(F)F)cc3)ccc2n1 | 4000 nM |  | < 50% |
| CCCc1cc(N(C)C)c2cc(NC(=O)/C=C/c3ccc(C(F)(F)F)cc3)ccc2n1 | 43 nM | 300 nM | < 50% |
| CCCc1cc(N)c2cc(NC(=O)/C=C/c3ccc(I)cc3)ccc2n1 | 2.3 nM | 280 nM | < 50% |
| CCCc1cc(N)c2cc(N(C)C(=O)CCc3ccc(C(F)(F)F)cc3)ccc2n1 | 1700 nM |  | < 50% |
| CCC(C)c1cc(N)c2cc(NC(=O)/C=C/c3ccc(C(F)(F)F)cc3)ccc2n1 (centres undefined) | 0.3 nM | 44 nM | < 50% |
| CCCc1cc(N2CCCC2)c2cc(NC(=O)/C=C/c3ccc(C(F)(F)F)cc3)ccc2n1 | 17 nM | 2800 nM | < 50% |
| CCCc1cc(N)c2cc(NC(=O)/C=C/c3ccc(C(C)(C)C)cc3)ccc2n1 | 22 nM | 910 nM | < 50% |
| CCCc1cc(N)c2cc(NC(=O)C3CCC(c4ccc(Cl)cc4)CC3)ccc2n1 (centres undefined) | 4.4 nM | 370 nM | < 50% |
| CCCc1cc(NCC)c2cc(NC(=O)/C=C/c3ccc(C(F)(F)F)cc3)ccc2n1 | 4.8 nM | 340 nM | < 50% |
| CCCc1cc(NC)c2cc(NC(=O)/C=C/c3ccc(C(F)(F)F)cc3)ccc2n1 | 1.5 nM | 150 nM | < 50% |
| CCCc1cc(N)c2cc(NC(=O)/C=C/c3ccc(Cl)c(Cl)c3)ccc2n1 | 60 nM | 990 nM | < 50% |
| CCCc1cc(N)c2cc(NC(=O)/C=C/c3ccccc3Cl)ccc2n1 | 120 nM | 500 nM | < 50% |
| CCCc1cc(N)c2cc(NC(=O)/C=C/c3ccc(C(C)C)cc3)ccc2n1 | 2.9 nM | 520 nM | < 50% |
| CC(C)c1cc(N)c2cc(NC(=O)/C=C/c3ccc(C(F)(F)F)cc3)ccc2n1 | 2.1 nM | 160 nM | < 50% |

| SMILES | IC50 [1] | EC50 [2] | inhibition [3] |
| --- | --- | --- | --- |
| CCCc1cc(NC2CC2)c2cc(NC(=O)/C=C/c3ccc(C(F)(F)F)cc3)ccc2n1 | 40 nM |  | < 50% |
| CCCc1cc(N)c2cc(NC(=O)/C=C/c3ccc([N+](=O)[O-])cc3)ccc2n1 | 20 nM | 310 nM | < 50% |
| CCCc1cc(N)c2cc(NC(=O)/C=C/c3ccc(SC)cc3)ccc2n1 | 9 nM | 71 nM | < 50% |
| CCCc1cc(N)c2cc(NC(=O)/C=C/c3ccc(F)cc3)ccc2n1 | 130 nM | 200 nM | < 50% |
| CCCc1cc(N)c2cc(NC(=O)/C=C/c3ccc(N)cc3)ccc2n1 | 190 nM |  | < 50% |
| CCCc1cc(N)c2cc(NC(=O)/C=C/c3ccc(Br)cc3)ccc2n1 | 4 nM | 93 nM | < 50% |
| CCCc1cc(N)c2cc(NC(=O)/C=C/c3ccccc3)ccc2n1 | 1000 nM |  | < 50% |
| CCCc1cc(N)c2cc(NC(=O)c3ccc(C(F)(F)F)cc3)ccc2n1 | 10000 nM |  | < 50% |
| CCCc1cc(N)c2cc(NC(=O)CCc3ccccc3)ccc2n1 | 8300 nM |  | < 50% |
| CCCc1cc(N)c2cc(NC(=O)/C=C/c3ccc(Cl)cc3)ccc2n1 | 6 nM | 96 nM | < 50% |
| CCCc1cc(N)c2cc(NC(=O)/C=C/c3ccc(C(F)(F)F)cc3)ccc2n1 (stereo in doubt; form 2) [listing 1 of 2 here] |  |  | < 50% |
| CCCc1cc(N)c2cc(NC(=O)/C=C/c3ccc(C(F)(F)F)cc3)ccc2n1 (stereo in doubt; form 1) [listing 2 of 2 here] |  |  | < 50% |
| CCCc1cc(N)c2cc(NC(=O)/C=C/c3ccc(C(F)(F)F)cc3)ccc2n1 (stereo in doubt; form 3) [listing 1 of 2 here] |  |  | < 50% |
| CCCc1cc(N)c2cc(NC(=O)/C=C/c3ccc(OC(C)=O)cc3)ccc2n1 | 95 nM | 630 nM | < 50% |
| Nc1cc(-c2ccccc2)nc2ccc(NC(=O)/C=C/c3ccc(Cl)cc3)cc12 | 18.5 nM | 6600 nM | < 50% |
| CCCc1cc(N)c2cc(NC(=O)/C=C/c3ccc(C)cc3)ccc2n1 | 9 nM | 71 nM | < 50% |
| CCCCc1cc(N)c2cc(NC(=O)/C=C/c3ccc(C(F)(F)F)cc3)ccc2n1 | 1.5 nM | 210 nM | < 50% |
| Nc1cc(C2CCCCC2)nc2ccc(NC(=O)/C=C/c3ccc(C(F)(F)F)cc3)cc12 | 1.2 nM | 96 nM | < 50% |
| CCCc1cc(N)c2cc(NC(=O)/C=C/c3ccc(CC)cc3)ccc2n1 | 1.4 nM | 160 nM | < 50% |
| CCCc1cc(N)c2cc(NC(=O)/C=C/c3cccc(Cl)c3)ccc2n1 | 1100 nM |  | < 50% |
| CCCc1cc(N)c2cc(NC(=O)/C=C/c3ccc(C(F)(F)F)cc3)ccc2n1 (stereo in doubt; form 3) [listing 2 of 2 here] | 1.3 nM | 60 nM |  |
| CC(C)(C)c1cc(N)c2cc(NC(=O)/C=C/c3ccc(C(F)(F)F)cc3)ccc2n1 | 0.3 nM | 29 nM | < 50% |
| CCCc1ccc(/C=C/C(=O)Nc2ccc3nc(CCC)cc(N)c3c2)cc1 | 4 nM | 3600 nM | < 50% |
| CCCCCc1cc(N)c2cc(NC(=O)/C=C/c3ccc(C(F)(F)F)cc3)ccc2n1 | 1.2 nM | 90 nM | < 50% |
| CCCc1cc(N2CCCCC2)c2cc(NC(=O)/C=C/c3ccc(C(F)(F)F)cc3)ccc2n1 | > 4000 nM |  | < 50% |
| CCCc1cc(N)c2cc(NC(=O)/C=C/c3ccc(O)cc3)ccc2n1 | 1100 nM |  | < 50% |
| CCCc1cc(N)c2cc(NC(=O)/C=C/c3ccc(C(F)(F)F)cc3)ccc2n1 (stereo in doubt; form 2) [listing 2 of 2 here] | 2 nM | 40 nM |  |
